Measured values taken from patent publication US20080039434A1, “Treatment of Interstitial Cystitis with Vitamin D Compounds” (BioXell S. p.A., priority 2004, published 2008).
“And” between values parts separate entries of the source, which are not always exact repeats. Equal values may be shown once.

Tests used:
[1] = tested on: rats with CYP-induced cystitis; experiment: Cystometry in conscious rats with cyclophosphamide (CYP) induced chronic IC, Compound A; format: in vivo, rat; set-up: Bl. Cap. / FP / TP / MP / amplitude of NVBC: unit not given here; conditions: Compound A oral 0.1 μg/kg daily for 14 days
From the text: The rat model of chemical cystitis induced by intraperitoneal injection of CYP has been Well accepted. CYP is used in clinical practice in the treatment of a number of malignant tumors. One of its metabolites, acrolein, is excreted in urine in large concentrations causing hemorrhagic cystitis associated with symptoms of urinary frequency, urgency and pelvic pain. The inflammatory process is characterized by changes in gross histology of bladder, increase in number and distribution of inflammatory cell infiltrates (mast cells, macrophage, PMNs), cyclo-oxygenase-2 expression and prostaglandin production, growth factor and cytokine production. The rat model of chemical cystitis closely resembles interstitial cystitis, a chronic, painful urinary bladder syndrome and has been used for the testing of therapeutic agents in the past.
This model was used to test the effects of oral administration of 1,25-dihydroxyvitamin D3 analogue in rats with CYP-induced cystitis. The effects of the treatment on the cystometric parameters in a conscious freely moving rat with CYP-induced cystitis were monitored. The following cystometric parameters were recorded in each animal: • bladder capacity • filling pressure (pressure at the beginning of the bladder filling) • threshold pressure (bladder pressure immediately prior to micturition) • micturition pressure (the maximal bladder pressure during micturition) • presence or absence of non-voiding bladder contractions (increases in bladder pressure of at least 10 cm H2O without release of urine) • amplitude of non-voiding bladder contraction.
Animals: Wistar female rats, age 8 weeks, weighing 125-175 g were used. […] Following recovery all animals received three intraperitoneal injections of CYP and subsequently were divided into the treatment and sham control groups.
Treatment group: Rats treated with oral 1,25-dihydroxyvitamin D3 analog (1,3-Di-O-acetyl-1,25-dihydroxy-16,23Z-diene-26,27-hexafluoro-19-nor-cholecalciferol) “Compound A” for 14 days (daily dose of 0.1 μg/kg)
Cystometry was performed 24 hours following the last dose of the drug or vehicle on awake freely moving animals.
A lower midline abdominal incision was performed under general inhalation anesthesia (isoflurine with O2) and polyethylene tubing (PE-50, Clay Adams, Parsippany, N.J.) with the end flared by heat was inserted into the dome of the bladder and secured in place with a 6-0 prolene purse string suture. The distal end of the tubing was heat-sealed, tunneled subcutaneously and externalized at the back of the neck, out of the animal's reach. Abdominal and neck incisions were closed with 4-0 nylon sutures.
Following recovery (5 days) subject animals underwent three intraperitoneal injections of CYP (Sigma Chemical, St. Luis, Mo.; 75 mg/kg each, intraperitoneal) over the period of nine days. On the tenth day following the first CYP injection the sham control animals received the vehicle only, whereas the experimental group were treated with the 1,25-dihydroxyvitamin D3 analogue 1,3-Di-O-acetyl-1,25-dihydroxy-16,23Z-diene-26,27-hexafluoro-19-nor-cholecalciferol “Compound A” (delivered orally using gavage). Two weeks following the initiation of the treatment animals underwent a conscious cystometrogram to assess the function of the urinary bladder.
An animal was placed unrestrained in a cage and the catheter was connected via a T-tube to a pressure transducer (Grass® Model PT300, West Warwick, R.I.) and microinjection pump (Harvard Apparatus 22, South Natick, Mass.). A 0.9% saline solution was infused at room temperature into the bladder at a rate of 10 ml/hour. […]. At least three reproducible micturition cycles were recorded after the initial stabilization period of 25-30 minutes.

[2] = tested on: IL-13; experiment: Taq-Man analysis of bladder mRNA, allergic IC in mice: IL-13; format: in vivo, mouse; conditions: ovalbumin challenged
Description: (§1) Mice (BALB/c, females 8 weeks old, weight 18-20 g, Charles River, Calco ITA) were sensitized by injecting 10 ug/mouse of chicken ovalbumin from Sigma (OVA, grade V) in the presence of 4 mg of alum (SERVA, Germany) by intraperitoneal injection, once a week for 4 weeks. This induces a sustained level of IgE detectable in serum.
(§2) One or two weeks after the last immunization boost, sensitized mice were anesthetized (1.5% Isoflurane) and then trans-urethrally catheterized (24 gauge, ¾ in.; Angiocath, Becton-Dickson). Slight digital pressure was applied the lower abdomen to drain the urine.
(§3) The urinary bladders were instilled with either 150 ul of either saline or OVA alone, (1 mg/150 ul) infused at a slow rate to avoid trauma and vesico-ureteral reflux and repeated twice within a 30-min interval with the syringe kept in place on the catheter for at least 30 min. Intravesical challenge was repeated 7-10 days after the first one with the same procedure.
(§4) An ethanol stock solution of Compound B (1 mg/ml) was dissolved in Miglyol vehicle at the appropriate concentration. Control animals received the vehicle containing the same amount of ethanol. Drug (or vehicle) treatment was carried out by daily gavage after weighing the animal. Drug solution was prepared calculating a final volume of 100 ul/10 grams body weight, and treatment was started on the day of the first intravesical ovalbumin challenge, maintained daily, but discontinued over the weekends, for 12 days total treatment. FIG. 7 illustrates the timeline of the experiment.
(§5) Total RNA was extracted from one half of bladder by using RNeasy Mini kit (Qiagen), treated with DNase 1 (Qiagen) and reverse transcription performed with Reverse Transcription Reagent (Applied Biosystems) with Random Hexamers (according to the manufacturer's instructions). cDNA was synthesized from 1 ug of RNA. Real-Time PCR was performed in 96-well optical reaction plates (Applied Biosystems). For each sample we amplified both the target gene and the housekeeping gene (HPRT) in different wells (singleplex) and in duplicate. The amplification Master Mix was prepared according to the following protocol (volumes refer to a single well with a final volume of 40 ul/well)): 2× TaqMan® R Universal PCR Master Mix (Applied Biosystems, 4304437): 20 ul; 20× Assay target gene: 2 ul; H2O: 8 ul; cDNA: 10 ul. Reaction was run on an SDS 7000 (Applied Biosystems) instruments, with the following amplification program: 2′ at 50° C.; 10′ at 95° C.; 15″ at 95° C. and 1′ at 60° C. for 40 cycles; Cycle threshold (Ct) values were exported into Excel Worksheets for analysis and relative quantitations were performed using the ΔCt method. All primers used carried the FAM reporter.
(§6) Experiments in Example 7 were performed according to the general procedures described previously in Example 6. Mice were challenged with saline (untreated) or ovalbumin (treatment with vehicle or one of Compounds C-I at a dosage indicated in Table 6 in ug/kg).

[3] = tested on: MMCP4; experiment: Taq-Man analysis of bladder mRNA, allergic IC in mice: MMCP4; format: in vivo, mouse; conditions: ovalbumin challenged; 75 ug/kg oral; individual animals
Description: as §1, §2, §3, §4, §5, §6

SMILES	Bl. Cap. ([1]; CYP cystitis, individual rats RB7, RB13, RB15, three micturition cycles each)	amplitude of NVBC ([1]; individual rats, three micturition cycles each)	FP ([1]; filling pressure, individual rats, three micturition cycles each)	MP ([1]; micturition pressure, individual rats, three micturition cycles each)	# of NVBC ([1]; non-voiding bladder contractions, individual rats, three micturition cycles each)	TP ([1]; threshold pressure, individual rats, three micturition cycles each)	expression of inflammatory marker IL-13 ([2]; 75 ug/kg oral, individual animals)	expression of inflammatory marker IL-13 ([2]; 30 and 75 ug/kg oral, dose dependent, pooled samples)	expression of inflammatory marker MMCP4 [3]
CC(=O)OC1C/C(=C/C=C2\CCC[C@]3(C)C(C(C)C/C=C\C(O)(C(F)(F)F)C(F)(F)F)=CCC23)C[C@@H](OC(C)=O)C1 (stereo partly drawn) [Compound A, 1,3-Di-O-acetyl-1,25-dihydroxy-16,23Z-diene-26,27-hexafluoro-19-nor-cholecalciferol]	1.9 and 1.3 (2×) and 2.5 and 1.5 and 0.7 (2×) and 0.8 and 1.4	10 and 11 (2×) and 0 (6×)	15 and 14 (3×) and 12 and 11 and 10 and 13 (2×)	105 and 97 (2×) and 90 and 100 and 108 and 98 and 101 and 104	4 and 8 (2×) and 0 (6×)	16 and 17 and 14 (4×) and 12 and 11 and 15	–	–	–
C=C1/C(=C\C=C2/CCC[C@]3(C)C([C@@H](C)C/C=C/C(O)(CC)CC)=CC[C@@H]23)C[C@@H](O)C[C@@H]1F [Compound B, 1-alpha-fluoro-25-hydroxy-16,23E-diene-26,27-bishomo-20-epi-cholecalciferol]	–	–	–	–	–	–	down-modulates	significantly reduces	down-modulates
